# From ChEMBL document CHEMBL4649984, “CBP30, a selective CBP/p300 bromodomain inhibitor, suppresses human Th17 responses” (Proc Natl Acad Sci U S A, 2015)
# Several values for one entry are separate records, joined by “and”; a condition that tells them apart may be missing. Equal entries are not always repeated.
# What was measured:
# [1] = target: SWI/SNF-related matrix-associated actin-dependent regulator of chromatin subfamily A member 2 (Homo sapiens) (UniProt P51531); details: Compound concentration 10.0 uM, Protein concentration 2.0 uM
# [2] = target: Bromodomain-containing protein 2 (Homo sapiens) (UniProt P25440); details: Compound concentration 10.0 uM, Protein concentration 2.0 uM
# [3] = target: Histone acetyltransferase KAT2A (Homo sapiens) (UniProt Q92830); details: Compound concentration 10.0 uM, Protein concentration 2.0 uM
# [4] = target: Nucleosome-remodeling factor subunit BPTF (Homo sapiens) (UniProt Q12830); details: Compound concentration 10.0 uM, Protein concentration 2.0 uM
# [5] = target: Protein polybromo-1 (Homo sapiens) (UniProt Q86U86); details: Compound concentration 10.0 uM, Protein concentration 2.0 uM
# [6] = target: Protein polybromo-1 (Homo sapiens) (UniProt Q86U86); details: Compound concentration 10.0 uM, Protein concentration 2.0 uM; remark: listed apart in the source
# [7] = target: Bromodomain adjacent to zinc finger domain protein 2B (Homo sapiens) (UniProt Q9UIF8); details: Compound concentration 10.0 uM, Protein concentration 2.0 uM
# [8] = target: Histone acetyltransferase p300 (Homo sapiens) (UniProt Q09472); assay: Thermal Shift Assay. Domain start/stop: A1040-S1171; details: Compound concentration 10.0 uM, Protein concentration 2.0 uM
# [9] = target: Chromatin remodeling regulator CECR2 (Homo sapiens) (UniProt Q9BXF3); details: Compound concentration 10.0 uM, Protein concentration 2.0 uM
# [10] = target: SWI/SNF-related matrix-associated actin-dependent regulator of chromatin subfamily A member 4 (Homo sapiens) (UniProt P51532); details: Compound concentration 10.0 uM, Protein concentration 2.0 uM
# [11] = target: Histone acetyltransferase p300 (Homo sapiens) (UniProt Q09472); details: Compound concentration 10.0 uM, Protein concentration 2.0 uM
# [12] = target: Histone-lysine N-methyltransferase ASH1L (Homo sapiens) (UniProt Q9NR48); details: Compound concentration 10.0 uM, Protein concentration 2.0 uM
# [13] = target: Transcription initiation factor TFIID subunit 1-like (Homo sapiens) (UniProt Q8IZX4); details: Compound concentration 10.0 uM, Protein concentration 2.0 uM
# [14] = target: Bromodomain adjacent to zinc finger domain protein 2B (Homo sapiens) (UniProt Q9UIF8); assay: Alphascreen assay. Domain start/stop: S1858-S1972; details: Compound concentration 25.0 uM, Protein concentration 25.0 uM
# [15] = target: Bromodomain and PHD finger-containing protein 3 (Homo sapiens) (UniProt Q9ULD4); details: Compound concentration 10.0 uM, Protein concentration 2.0 uM
# [16] = target: Bromodomain and WD repeat-containing protein 1 (Homo sapiens) (UniProt Q9NSI6); details: Compound concentration 10.0 uM, Protein concentration 2.0 uM
# Peregrin (Homo sapiens) [17] = target: Peregrin (Homo sapiens) (UniProt P55201); details: Compound concentration 10.0 uM, Protein concentration 2.0 uM
# [18] = target: Bromodomain testis-specific protein (Homo sapiens) (UniProt Q58F21); details: Compound concentration 10.0 uM, Protein concentration 2.0 uM
# [19] = target: Protein polybromo-1 (Homo sapiens) (UniProt Q86U86); assay: Thermal Shift Assay. Domain start/stop: R487-D598; details: Compound concentration 10.0 uM, Protein concentration 2.0 uM
# [20] = target: T1, Bromodomain-containing protein 4 (Homo sapiens, UniProt O60885); assay: Alphascreen assay. Binding to BRD4A (domain start/stop: N44-E168) by alphascreen assay
# [21] = target: ATPase family AAA domain-containing protein 2 (Homo sapiens) (UniProt Q6PL18); details: Compound concentration 10.0 uM, Protein concentration 2.0 uM
# [22] = target: Transcription intermediary factor 1-alpha (Homo sapiens) (UniProt O15164); details: Compound concentration 10.0 uM, Protein concentration 2.0 uM
# [23] = target: Bromodomain and WD repeat-containing protein 3 (Homo sapiens) (UniProt Q6RI45); details: Compound concentration 10.0 uM, Protein concentration 2.0 uM
# [24] = target: Protein polybromo-1 (Homo sapiens) (UniProt Q86U86); assay: Thermal Shift Assay. Domain start/stop: H23-D159; details: Compound concentration 10.0 uM, Protein concentration 2.0 uM
# [25] = target: Transcription initiation factor TFIID subunit 1-like (Homo sapiens) (UniProt Q8IZX4); details: Compound concentration 10.0 uM, Protein concentration 2.0 uM; remark: listed apart in the source
# Peregrin (Homo sapiens) [26] = target: Peregrin (Homo sapiens) (UniProt P55201); details: Compound concentration 10.0 uM, Protein concentration 2.0 uM; remark: listed apart in the source
# [27] = target: Nuclear body protein SP140-like protein (Homo sapiens) (UniProt Q9H930); details: Compound concentration 10.0 uM, Protein concentration 2.0 uM
# [28] = target: T1, Bromodomain-containing protein 4; details: Compound concentration 10.0 uM, Protein concentration 2.0 uM
# [29] = target: Bromodomain-containing protein 1 (Homo sapiens) (UniProt O95696); details: Compound concentration 10.0 uM, Protein concentration 2.0 uM
# [30] = target: Bromodomain testis-specific protein (Homo sapiens) (UniProt Q58F21); details: Compound concentration 10.0 uM, Protein concentration 2.0 uM; remark: listed apart in the source
# [31] = target: Bromodomain-containing protein 2 (Homo sapiens) (UniProt P25440); details: Compound concentration 10.0 uM, Protein concentration 2.0 uM; remark: listed apart in the source
# [32] = target: ATPase family AAA domain-containing protein 2 (Homo sapiens) (UniProt Q6PL18); details: Compound concentration 25.0 uM, Protein concentration 200.0 uM
# Description: Alphascreen assay. Domain start/stop: Q981-R1108
# [33] = target: Transcription initiation factor TFIID subunit 1 (Homo sapiens) (UniProt P21675); details: Compound concentration 10.0 uM, Protein concentration 2.0 uM
# [34] = target: Chromatin remodeling regulator CECR2 (Homo sapiens) (UniProt Q9BXF3); details: Compound concentration 20.0 uM, Protein concentration 12.5 uM
# [35] = target: Bromodomain-containing protein 3 (Homo sapiens) (UniProt Q15059); details: Compound concentration 10.0 uM, Protein concentration 2.0 uM
# [36] = target: Bromodomain-containing protein 9 (Homo sapiens) (UniProt Q9H8M2); details: Compound concentration 10.0 uM, Protein concentration 2.0 uM
# [37] = target: Transcription intermediary factor 1-beta (Homo sapiens) (UniProt Q13263); details: Compound concentration 10.0 uM, Protein concentration 2.0 uM
# [38] = target: PH-interacting protein (Homo sapiens) (UniProt Q8WWQ0); details: Compound concentration 10.0 uM, Protein concentration 2.0 uM
# [39] = target: CREB-binding protein (Homo sapiens) (UniProt Q92793); details: Compound concentration 10.0 uM, Protein concentration 2.0 uM
# [40] = target: Transcription initiation factor TFIID subunit 1 (Homo sapiens) (UniProt P21675); details: Compound concentration 10.0 uM, Protein concentration 2.0 uM; remark: listed apart in the source
# [41] = target: PH-interacting protein (Homo sapiens) (UniProt Q8WWQ0); details: Compound concentration 50.0 uM, Protein concentration 0.025 uM
# [42] = target: Protein polybromo-1 (Homo sapiens) (UniProt Q86U86); details: Compound concentration 10.0 uM, Protein concentration 2.0 uM; remark: listed apart in the source
# [43] = target: ATPase family AAA domain-containing protein 2B (Homo sapiens) (UniProt Q9ULI0); details: Compound concentration 10.0 uM, Protein concentration 2.0 uM
# [44] = target: Nuclear body protein SP140 (Homo sapiens) (UniProt Q13342); details: Compound concentration 10.0 uM, Protein concentration 2.0 uM
# [45] = target: Histone acetyltransferase KAT2B (Homo sapiens) (UniProt Q92831); details: Compound concentration 10.0 uM, Protein concentration 2.0 uM
# [46] = target: Bromodomain adjacent to zinc finger domain protein 2A (Homo sapiens) (UniProt Q9UIF9); details: Compound concentration 10.0 uM, Protein concentration 2.0 uM
# [47] = target: Bromodomain-containing protein 3 (Homo sapiens) (UniProt Q15059); assay: Thermal Shift Assay. Domain start/stop: P24-E144; details: Compound concentration 10.0 uM, Protein concentration 2.0 uM
# [48] = target: Protein polybromo-1 (Homo sapiens) (UniProt Q86U86); details: Compound concentration 10.0 uM, Protein concentration 2.0 uM; remark: listed apart in the source
# [49] = target: Tripartite motif-containing protein 66 (Homo sapiens) (UniProt O15016); assay: Thermal Shift Assay. Domain start/stop: M1091-S1218; details: Compound concentration 10.0 uM, Protein concentration 2.0 uM
# [50] = target: Bromodomain adjacent to zinc finger domain protein 1A (Homo sapiens) (UniProt Q9NRL2); details: Compound concentration 10.0 uM, Protein concentration 2.0 uM
# Sequence of Transcription initiation factor TFIID subunit 1 (Homo sapiens) (P21675 whole entry): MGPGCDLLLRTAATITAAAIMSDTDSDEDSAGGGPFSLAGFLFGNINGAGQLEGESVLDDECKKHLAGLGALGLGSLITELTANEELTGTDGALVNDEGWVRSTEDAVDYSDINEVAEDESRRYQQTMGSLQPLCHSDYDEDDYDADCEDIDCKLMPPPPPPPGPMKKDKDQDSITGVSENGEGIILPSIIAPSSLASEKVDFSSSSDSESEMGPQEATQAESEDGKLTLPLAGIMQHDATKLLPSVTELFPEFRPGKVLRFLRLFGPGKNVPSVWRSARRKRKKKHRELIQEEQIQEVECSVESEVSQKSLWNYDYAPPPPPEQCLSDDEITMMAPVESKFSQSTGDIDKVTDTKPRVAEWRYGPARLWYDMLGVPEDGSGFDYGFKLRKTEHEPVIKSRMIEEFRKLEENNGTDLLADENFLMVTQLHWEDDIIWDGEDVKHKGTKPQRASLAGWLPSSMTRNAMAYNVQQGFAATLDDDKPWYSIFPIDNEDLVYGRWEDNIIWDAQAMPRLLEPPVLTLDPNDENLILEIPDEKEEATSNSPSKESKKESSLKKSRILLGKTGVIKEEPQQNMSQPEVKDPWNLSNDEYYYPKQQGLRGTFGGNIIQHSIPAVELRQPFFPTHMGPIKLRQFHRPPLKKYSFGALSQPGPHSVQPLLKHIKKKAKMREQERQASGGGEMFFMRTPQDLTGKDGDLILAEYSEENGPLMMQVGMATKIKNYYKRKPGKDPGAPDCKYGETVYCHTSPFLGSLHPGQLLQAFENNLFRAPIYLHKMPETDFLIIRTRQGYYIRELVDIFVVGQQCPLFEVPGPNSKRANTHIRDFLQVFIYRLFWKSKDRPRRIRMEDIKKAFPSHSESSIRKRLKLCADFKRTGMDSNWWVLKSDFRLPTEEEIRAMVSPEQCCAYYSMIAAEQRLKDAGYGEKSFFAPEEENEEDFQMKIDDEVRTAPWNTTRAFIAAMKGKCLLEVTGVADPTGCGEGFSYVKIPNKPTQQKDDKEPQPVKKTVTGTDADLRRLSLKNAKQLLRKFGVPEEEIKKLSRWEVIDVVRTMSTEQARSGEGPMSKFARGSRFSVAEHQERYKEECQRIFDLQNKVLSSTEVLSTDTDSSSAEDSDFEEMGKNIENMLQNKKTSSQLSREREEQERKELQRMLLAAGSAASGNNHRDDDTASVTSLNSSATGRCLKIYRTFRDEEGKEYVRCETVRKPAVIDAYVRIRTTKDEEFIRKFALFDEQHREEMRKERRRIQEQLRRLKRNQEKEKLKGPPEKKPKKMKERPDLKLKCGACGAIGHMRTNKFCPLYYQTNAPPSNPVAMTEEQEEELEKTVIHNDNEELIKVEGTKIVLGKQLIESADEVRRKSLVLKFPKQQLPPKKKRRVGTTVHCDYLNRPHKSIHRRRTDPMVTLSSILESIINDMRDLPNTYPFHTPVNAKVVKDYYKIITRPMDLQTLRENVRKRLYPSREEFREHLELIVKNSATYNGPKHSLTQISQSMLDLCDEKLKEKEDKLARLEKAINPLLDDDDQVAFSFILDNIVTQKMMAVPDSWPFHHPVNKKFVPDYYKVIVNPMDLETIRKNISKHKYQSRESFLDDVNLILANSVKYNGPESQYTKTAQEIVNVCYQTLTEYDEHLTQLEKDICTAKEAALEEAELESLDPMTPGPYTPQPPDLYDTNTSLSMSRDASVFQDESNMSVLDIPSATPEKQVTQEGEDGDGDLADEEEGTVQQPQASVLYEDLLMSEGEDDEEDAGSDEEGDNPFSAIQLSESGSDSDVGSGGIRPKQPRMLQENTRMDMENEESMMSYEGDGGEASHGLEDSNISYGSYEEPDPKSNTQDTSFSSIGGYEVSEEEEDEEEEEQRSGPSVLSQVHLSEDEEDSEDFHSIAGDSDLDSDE
# Sequence of Chromatin remodeling regulator CECR2 (Homo sapiens) (Q9BXF3 whole entry, looked up): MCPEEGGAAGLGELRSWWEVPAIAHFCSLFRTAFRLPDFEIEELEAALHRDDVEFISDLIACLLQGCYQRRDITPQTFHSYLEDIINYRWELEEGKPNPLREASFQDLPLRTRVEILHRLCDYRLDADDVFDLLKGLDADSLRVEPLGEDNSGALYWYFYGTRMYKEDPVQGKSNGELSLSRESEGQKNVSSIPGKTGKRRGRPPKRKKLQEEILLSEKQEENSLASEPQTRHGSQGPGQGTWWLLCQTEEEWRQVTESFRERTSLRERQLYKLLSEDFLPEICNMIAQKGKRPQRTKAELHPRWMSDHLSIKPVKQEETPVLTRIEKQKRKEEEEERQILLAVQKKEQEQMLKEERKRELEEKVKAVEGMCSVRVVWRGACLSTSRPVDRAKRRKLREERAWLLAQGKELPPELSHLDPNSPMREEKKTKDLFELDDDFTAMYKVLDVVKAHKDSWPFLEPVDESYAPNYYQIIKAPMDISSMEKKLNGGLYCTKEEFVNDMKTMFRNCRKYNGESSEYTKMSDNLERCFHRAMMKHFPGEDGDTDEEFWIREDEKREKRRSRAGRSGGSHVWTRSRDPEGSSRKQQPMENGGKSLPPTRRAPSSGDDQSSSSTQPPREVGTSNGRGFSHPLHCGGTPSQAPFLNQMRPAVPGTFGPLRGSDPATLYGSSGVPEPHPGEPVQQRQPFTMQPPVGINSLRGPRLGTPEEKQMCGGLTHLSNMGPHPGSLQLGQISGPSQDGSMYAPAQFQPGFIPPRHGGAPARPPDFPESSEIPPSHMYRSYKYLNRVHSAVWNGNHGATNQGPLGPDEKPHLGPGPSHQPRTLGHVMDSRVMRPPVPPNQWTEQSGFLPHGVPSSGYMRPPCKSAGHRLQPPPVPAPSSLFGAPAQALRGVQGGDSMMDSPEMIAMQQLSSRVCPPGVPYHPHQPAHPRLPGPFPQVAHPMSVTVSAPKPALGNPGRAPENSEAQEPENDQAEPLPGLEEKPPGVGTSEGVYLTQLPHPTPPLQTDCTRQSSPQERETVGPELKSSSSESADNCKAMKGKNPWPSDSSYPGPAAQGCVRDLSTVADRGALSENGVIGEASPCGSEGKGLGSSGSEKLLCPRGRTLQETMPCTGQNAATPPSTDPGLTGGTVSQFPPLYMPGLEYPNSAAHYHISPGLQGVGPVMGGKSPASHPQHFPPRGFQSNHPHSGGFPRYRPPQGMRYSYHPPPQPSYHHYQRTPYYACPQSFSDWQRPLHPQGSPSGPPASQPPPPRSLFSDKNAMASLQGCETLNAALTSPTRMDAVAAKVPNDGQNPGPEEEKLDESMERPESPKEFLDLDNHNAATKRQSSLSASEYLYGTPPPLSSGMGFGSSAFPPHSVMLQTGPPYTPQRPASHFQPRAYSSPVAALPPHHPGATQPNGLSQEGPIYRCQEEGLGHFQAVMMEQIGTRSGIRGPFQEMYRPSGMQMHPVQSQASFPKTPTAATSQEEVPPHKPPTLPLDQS
# Sequence of Protein polybromo-1 (Homo sapiens) (Q86U86 whole entry, the tested form may be a part): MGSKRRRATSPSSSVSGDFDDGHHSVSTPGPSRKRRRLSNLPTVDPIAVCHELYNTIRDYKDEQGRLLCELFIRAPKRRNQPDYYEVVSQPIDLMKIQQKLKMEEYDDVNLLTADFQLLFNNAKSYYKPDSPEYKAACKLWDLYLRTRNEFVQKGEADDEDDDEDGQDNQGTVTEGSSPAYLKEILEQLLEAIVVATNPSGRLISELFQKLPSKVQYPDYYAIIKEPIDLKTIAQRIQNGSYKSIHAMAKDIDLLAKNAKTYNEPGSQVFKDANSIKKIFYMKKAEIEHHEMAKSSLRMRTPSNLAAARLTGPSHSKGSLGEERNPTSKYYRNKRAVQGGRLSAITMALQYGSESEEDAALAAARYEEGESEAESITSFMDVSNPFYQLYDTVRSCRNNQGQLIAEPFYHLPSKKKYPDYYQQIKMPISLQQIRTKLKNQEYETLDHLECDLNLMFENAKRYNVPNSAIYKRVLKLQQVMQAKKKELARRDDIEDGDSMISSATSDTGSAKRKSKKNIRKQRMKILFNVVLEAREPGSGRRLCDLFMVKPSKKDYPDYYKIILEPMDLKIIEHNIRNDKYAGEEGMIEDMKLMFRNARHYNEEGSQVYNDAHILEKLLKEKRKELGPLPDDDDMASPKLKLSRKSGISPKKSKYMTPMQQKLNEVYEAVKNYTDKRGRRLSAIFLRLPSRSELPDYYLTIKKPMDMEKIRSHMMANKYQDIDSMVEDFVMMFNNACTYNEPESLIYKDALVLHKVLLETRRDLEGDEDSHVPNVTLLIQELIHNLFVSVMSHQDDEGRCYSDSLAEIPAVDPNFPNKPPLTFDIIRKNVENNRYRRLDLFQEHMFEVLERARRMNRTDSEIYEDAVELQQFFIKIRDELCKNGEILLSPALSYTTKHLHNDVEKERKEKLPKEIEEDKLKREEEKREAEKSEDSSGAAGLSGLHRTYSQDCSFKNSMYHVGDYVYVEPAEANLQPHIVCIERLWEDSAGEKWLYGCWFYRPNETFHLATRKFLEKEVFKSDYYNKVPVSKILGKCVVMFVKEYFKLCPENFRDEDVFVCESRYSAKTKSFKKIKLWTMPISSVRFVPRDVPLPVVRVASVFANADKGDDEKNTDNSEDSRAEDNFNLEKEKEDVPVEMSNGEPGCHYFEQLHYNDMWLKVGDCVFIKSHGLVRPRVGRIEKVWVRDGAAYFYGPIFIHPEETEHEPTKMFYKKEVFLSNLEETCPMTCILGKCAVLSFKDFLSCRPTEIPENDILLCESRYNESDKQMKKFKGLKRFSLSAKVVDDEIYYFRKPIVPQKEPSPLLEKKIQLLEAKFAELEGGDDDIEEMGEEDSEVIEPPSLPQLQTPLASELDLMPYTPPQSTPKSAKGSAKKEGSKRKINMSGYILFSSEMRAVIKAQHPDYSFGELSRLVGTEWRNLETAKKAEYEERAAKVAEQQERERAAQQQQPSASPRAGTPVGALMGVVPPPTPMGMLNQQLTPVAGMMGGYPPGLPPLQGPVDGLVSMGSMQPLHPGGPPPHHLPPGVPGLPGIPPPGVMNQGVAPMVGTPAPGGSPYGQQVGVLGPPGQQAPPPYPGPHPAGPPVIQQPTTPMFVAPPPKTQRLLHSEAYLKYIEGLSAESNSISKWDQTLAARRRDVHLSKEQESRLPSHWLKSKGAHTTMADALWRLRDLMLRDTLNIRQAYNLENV
smiles,measurement,setting,value
COc1ccc(CCc2nc3cc(-c4c(C)noc4C)ccc3n2C[C@H](C)N2CCOCC2)cc1Cl,ΔTm,[1],0.06 °C
same,ΔTm,[2],1.41 °C
same,ΔTm,[3],0.17 °C
same,ΔTm,[4],0.21 °C and -1.05 °C
same,ΔTm,[5],0.23 °C
same,ΔTm,[6],0.46 °C
same,ΔTm,[7],0.17 °C
same,ΔTm,[8],9.68 °C
same,ΔTm,[9],0.18 °C and 1.55 °C
same,ΔTm,[10],0.34 °C
same,ΔTm,[11],10.2 °C
same,ΔTm,[12],-0.29 °C
same,ΔTm,[13],1.11 °C
same,inhibition,[14],24%
same,ΔTm,[15],0.46 °C
same,ΔTm,[16],0.96 °C
same,ΔTm,Peregrin (Homo sapiens) [17],0.42 °C
same,ΔTm,[18],0.37 °C
same,ΔTm,[19],0.23 °C
same,IC50,[20],27.8 µM and 7.12 µM
same,ΔTm,[21],-2.5 °C
same,ΔTm,[22],0.67 °C
same,ΔTm,[23],0.97 °C
same,ΔTm,[24],0.03 °C
same,ΔTm,[25],-0.06 °C
same,ΔTm,Peregrin (Homo sapiens) [26],1.46 °C
same,ΔTm,[27],0.17 °C
same,ΔTm,[28],0.56 °C
same,ΔTm,[29],0.43 °C and 0.36 °C
same,ΔTm,[30],0.66 °C
same,ΔTm,[31],0.99 °C
same,inhibition,[32],24.4%
same,ΔTm,[33],-0.12 °C
same,inhibition,[34],58.8%
same,ΔTm,[35],1.25 °C
same,ΔTm,[36],-0.12 °C and -0.5 °C
same,ΔTm,[37],0.49 °C and -0.34 °C
same,ΔTm,[38],0.57 °C
same,ΔTm,[39],10.2 °C and 9.55 °C
same,ΔTm,[40],0.26 °C and 0.07 °C
same,inhibition,[41],35.5% and 42.4%
same,ΔTm,[42],0.46 °C and -0.03 °C
same,ΔTm,[43],0.45 °C
same,ΔTm,[44],0.37 °C
same,ΔTm,[45],0.46 °C
same,ΔTm,[46],-0.18 °C
same,ΔTm,[47],1.83 °C
same,ΔTm,[48],0.12 °C
same,ΔTm,[49],0.82 °C
same,ΔTm,[50],-0.45 °C
